{"source": "patent US12723261B2", "about": "“Process for producing a plurality of Neddylation site modified AAV2 vectors” (INDIAN INSTITUTE OF […], priority 2018, dated 2026)", "tested_on": "HeLa cells", "assay": "In vitro drug assay: scAAV2-EGFP transduction after pre-treatment with Neddylation inhibitor", "format": "cell-based", "settings": "versus control cells", "method": "Approximately 3×10^4 HeLa cells were seeded in 24 well plate and incubated for 12 hours in Iscove's-modified Dulbecco's medium (IMDM) with 10% fetal bovine serum in humidified conditions and 5% CO2. Cells were either mock treated or treated with a Neddylation inhibitor, MLN4924 (Calbiochem, Merck, Kenilworth, USA) at a concentration of 1 μM and incubated at 37° C. for 3 hours. After incubation, cells were infected with scAAV2-EGFP vectors at a multiplicity of infection (MOI) of 5000 for 3 hours in IMDM at 37° C. Forty-eight hours later, the transgene (GFP) expression was quantified by flow cytometry (BDaccuri, BD Biosciences, Franklin Lakes, USA).\nTo determine the role of cellular Neddylation during AAV2 infection, a small molecular inhibitor of Neddylation being used herein, MLN4924. The MLN4924 prevents the formation of the NEDD8 and Neddylation activating enzyme (NAE1) protein complex. The HeLa cells were pre-treated for three hours, after which the HeLa cells were infected with scAAV2-EGFP. […] Further studies such as specific targeting of Neddylation pathway genes by RNA interference are warranted to understand the mechanism involved in this process. […] Forty-eight hours later, the transgene (GFP) expression was quantified by flow cytometry. […]"}
{"smiles": "NS(=O)(=O)OC[C@@H]1C[C@@H](n2ccc3c(N[C@H]4CCc5ccccc54)ncnc32)C[C@@H]1O", "note": "[MLN4924]", "values": [{"measurement": "improvement of AAV transduction by Neddylation inhibition", "result": 50, "unit": "%"}]}
